# Measurements from patent US20260262691A1, “USE OF VANILLYL ETHERS TO MODIFY FLAVOR” (Firmenich Incorporated, priority 2023, published 2026).
# Legend:
# [1] = Sensory panel rating of bitterness and astringency of liquid pea protein concentrate with vanillyl ethers; assay type: in vivo; settings: pea protein 3 percent by weight in water, without sugar; vanillyl ether 0.5 ppm; sensory panelists, scale from 0 to 10
# Procedure: Liquid pea protein concentrate compositions were prepared (3 percent by weight in water) without sugar added. Control and test samples were prepared. To two test samples vanillyl ethyl ether (VEE) and vanillyl butyl ether (VBE) were added, respectively, at a concentration of 0.5 ppm. The control and test samples were evaluated by sensory panelists to rate the bitterness and astringency of the control sample and the two test samples on a scale from 0 to 10. Table 2 reports the mean difference between the bitterness and astringency scores between the control sample and each of the two test samples.
# [2] = Sensory panel rating of characteristics of lemon tea beverage with vanillyl ethers; assay type: in vivo; settings: lemon tea beverage with Stevia sweetener, VEE 0.5 ppm (phloretin 8 ppm where combined), scale from 0 to 10, higher = more intense
# Procedure: Samples of a lemon tea beverage were prepared.
# Two test samples were prepared by adding (a) vanillyl ethyl ether (VEE) at a concentration of 0.5 ppm, and (b) vanillyl ethyl ether (VEE) at a concentration of 0.5 ppm and phloretin at a concentration of 8 ppm. The control and test samples were evaluated by sensory panelists to rate various characteristics of the control sample and the two test samples on a scale from 0 to 10.
Structure (SMILES),Astringency: mean difference between scores of control sample and test sample [1],Bitterness: mean difference between scores of control sample and test sample [1],Off Note Intensity (mean score) ([2]; control 2.9),Astringency (mean score) ([2]; control 3.0),Mouthfeel (mean score) ([2]; control 3.1),Bitterness (mean score) ([2]; control 3.8),Unfront Sweetness (mean score) ([2]; control 4.5),Lemon Flavor (mean score) ([2]; control 4.6),Lingering Sweetness (mean score) ([2]; control 4.9),Peak Sweetness (mean score) ([2]; control 5.4)
"CCCCOCc1ccc(O)c(OC)c1 [VBE, 4-(butoxymethyl)-2-methoxyphenol]",−2.2,−1.0,–,–,–,–,–,–,–,–
"CCOCc1ccc(O)c(OC)c1 [VEE, 4-(ethoxymethyl)-2-methoxyphenol]",−1.5,−0.5,2.4,2.1,3.5,2.7,4.7,4.8,4.0,5.4
